Values quoted from earlier work in US5654452A, “Lipophilic contrast agents for use in hepatocyte-selective oil-in-water emulsions” (Molecular Biosystems, Inc., priority 1995, dated 1997).

Tested on: reticulendothelial system (RES)
Conditions: in vivo

Compound: CCOC(=O)c1c(I)cc(I)c(NC(=O)CCCCC(=O)Nc2c(I)cc(I)c(C(=O)OCC)c2I)c1I [iodipamide ethyl esters]
- uptake / liver specificity in reticuloendothelial system: liver specificity is mediated primarily via sequestration by the reticulendothelial system (RES)
